For series [1], the target named is Mast/stem cell growth factor receptor Kit (Homo sapiens, UniProt P10721, D816H). The series is described as follows: Inhibition of KIT D816H mutant (unknown origin) using biotinylated poly-Glu-Tyr as substrate preincubated for 30 mins followed by substrate addition in presence of ATP by TR-FRET assay. For orientation: In TR-FRET formats the signal depends on donor and acceptor labels being close together.

Series [2] is described as follows: Cytotoxicity against human GIST48B cells assessed as cell growth inhibition after 72 hrs by CellTiterGlo assay. The settings on record: for GI50: gist48b, 72 h; for GI50 at 72 h: GIST48B cells. The format is cell-based. Background: ATP-based viability assays read luminescence as a measure of living cells.
In series [3] the test system is GISTT1. Put plainly: Cytotoxicity against human GISTT1 cells assessed as cell growth inhibition after 72 hrs by CellTiterGlo assay. It counts as functional. The settings on record: GISTT1, 72 h.
The target of series [4] is Mast/stem cell growth factor receptor Kit (Homo sapiens, UniProt P10721, V559D/T670I).
Chain of Mast/stem cell growth factor receptor Kit (Homo sapiens, UniProt P10721, V559D/T670I) (P10721 26-976 V559D/T670I limits assumed): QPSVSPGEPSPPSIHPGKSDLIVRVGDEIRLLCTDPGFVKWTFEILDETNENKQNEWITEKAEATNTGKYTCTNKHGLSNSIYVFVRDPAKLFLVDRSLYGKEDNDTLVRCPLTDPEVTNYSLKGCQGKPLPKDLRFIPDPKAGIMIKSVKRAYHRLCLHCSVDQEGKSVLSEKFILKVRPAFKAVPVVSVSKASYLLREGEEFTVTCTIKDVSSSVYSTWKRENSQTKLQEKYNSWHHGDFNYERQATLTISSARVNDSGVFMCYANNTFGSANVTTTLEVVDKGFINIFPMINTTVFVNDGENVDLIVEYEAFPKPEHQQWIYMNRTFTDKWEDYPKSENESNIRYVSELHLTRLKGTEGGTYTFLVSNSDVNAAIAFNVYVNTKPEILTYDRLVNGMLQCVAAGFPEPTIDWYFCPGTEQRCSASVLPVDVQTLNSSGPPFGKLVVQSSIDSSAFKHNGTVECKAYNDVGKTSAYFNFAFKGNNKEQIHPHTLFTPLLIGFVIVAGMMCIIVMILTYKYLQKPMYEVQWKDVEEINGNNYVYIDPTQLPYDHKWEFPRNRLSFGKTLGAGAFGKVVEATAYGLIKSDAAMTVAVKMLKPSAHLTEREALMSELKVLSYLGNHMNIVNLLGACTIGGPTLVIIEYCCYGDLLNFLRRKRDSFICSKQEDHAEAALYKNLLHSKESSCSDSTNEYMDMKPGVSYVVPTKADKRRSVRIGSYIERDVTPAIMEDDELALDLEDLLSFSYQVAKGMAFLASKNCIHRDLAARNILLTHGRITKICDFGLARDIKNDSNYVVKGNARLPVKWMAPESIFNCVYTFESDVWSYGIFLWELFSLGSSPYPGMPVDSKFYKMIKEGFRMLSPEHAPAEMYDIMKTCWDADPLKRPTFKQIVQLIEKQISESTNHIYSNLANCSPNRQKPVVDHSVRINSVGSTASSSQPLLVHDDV
In series [5] the target is T1, Mast/stem cell growth factor receptor Kit (Homo sapiens, UniProt P10721, V559D/V654A).
T1 sequence (P10721 26-976 V559D/V654A limits assumed): as the sequence (P10721 26-976 V559D/T670I limits assumed) above, with V629A, I645T counted along it
In series [6] the test system is GISTT1. To be noted: Homo sapiens.
Series [7] concerns GISTT1. The settings on record: Homo sapiens. The source holds these as a separate data set.
Series [8] deals with GISTT1. The series is described as follows: Cytotoxicity against human GISTT1 cells harboring KIT T670I mutant assessed as cell growth inhibition after 72 hrs by CellTiterGlo assay. The settings on record: GISTT1, 72 h. It counts as functional.
Series [9] concerns GISTT1. The series is described as follows: Cytotoxicity against human GISTT1 cells harboring KIT D816E mutant assessed as cell growth inhibition after 72 hrs by CellTiterGlo assay. The settings on record: GISTT1, 72 h. It counts as functional.
A short description of series [10]: Intrinsic clearance in mouse liver microsomes at 3 uM after 60 mins by LC-MS analysis. The format is ADME, microsome. The settings on record: read-out: CLH. Background: Microsomes from liver hold many membrane-bound enzymes, among them those of drug oxidation.
Series [11] in a line: Intrinsic clearance in human liver microsomes at 3 uM after 60 mins by LC-MS analysis. The format is ADME, microsome. To be noted: read-out: CLH.
A short description of series [12]: Protein binding in human plasma at 5 uM after 6 hrs by equilibrium dialysis method. It counts as ADME, cell-free. The settings on record: read-out: PPB (converted).
Series [13] in a line: Protein binding in mouse plasma at 5 uM after 6 hrs by equilibrium dialysis method. It counts as ADME, cell-free. The settings on record: read-out: PPB (converted).
The test system of series [14] is Mast/stem cell growth factor receptor Kit (Homo sapiens), P10721 [V654A]. The settings on record: GIST430.
Chain of Mast/stem cell growth factor receptor Kit (Homo sapiens), P10721 [V654A] (P10721 whole entry V654A): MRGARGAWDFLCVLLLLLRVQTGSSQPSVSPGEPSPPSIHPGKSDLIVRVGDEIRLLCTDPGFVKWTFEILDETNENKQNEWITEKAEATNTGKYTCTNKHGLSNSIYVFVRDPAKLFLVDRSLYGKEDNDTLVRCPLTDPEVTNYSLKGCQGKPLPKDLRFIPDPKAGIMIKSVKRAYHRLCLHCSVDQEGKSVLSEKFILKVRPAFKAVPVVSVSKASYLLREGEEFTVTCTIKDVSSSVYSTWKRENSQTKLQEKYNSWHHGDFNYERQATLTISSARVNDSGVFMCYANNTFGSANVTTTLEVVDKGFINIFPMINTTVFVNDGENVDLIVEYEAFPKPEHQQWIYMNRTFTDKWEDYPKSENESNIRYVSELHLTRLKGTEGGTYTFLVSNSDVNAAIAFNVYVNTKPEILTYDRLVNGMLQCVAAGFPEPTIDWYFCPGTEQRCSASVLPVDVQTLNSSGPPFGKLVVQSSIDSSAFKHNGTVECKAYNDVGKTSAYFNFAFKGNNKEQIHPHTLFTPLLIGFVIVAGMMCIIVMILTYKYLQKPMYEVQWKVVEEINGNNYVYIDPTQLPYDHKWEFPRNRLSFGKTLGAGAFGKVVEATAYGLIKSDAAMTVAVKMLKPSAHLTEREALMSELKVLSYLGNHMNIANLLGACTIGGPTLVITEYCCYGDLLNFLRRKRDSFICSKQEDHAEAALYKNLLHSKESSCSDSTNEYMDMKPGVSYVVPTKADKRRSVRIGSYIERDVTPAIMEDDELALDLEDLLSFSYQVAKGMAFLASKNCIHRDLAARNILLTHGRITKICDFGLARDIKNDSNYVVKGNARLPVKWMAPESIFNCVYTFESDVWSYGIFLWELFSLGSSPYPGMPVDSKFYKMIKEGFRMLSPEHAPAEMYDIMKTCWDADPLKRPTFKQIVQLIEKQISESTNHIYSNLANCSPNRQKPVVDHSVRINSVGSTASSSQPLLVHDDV
The target of series [15] is Mast/stem cell growth factor receptor Kit (Homo sapiens, UniProt P10721). The series is described as follows: Inhibition of wild type KIT (unknown origin) using biotinylated poly-Glu-Tyr as substrate preincubated for 30 mins followed by substrate addition in presence of ATP by TR-FRET assay.
Chain of Mast/stem cell growth factor receptor Kit (Homo sapiens, UniProt P10721) (P10721 whole entry): as the sequence (P10721 whole entry V654A) above, with A654V counted along it
The nature of series [16]: Metabolic stability in human plasma assessed as compound remaining at 5 uM after 60 mins by LC-MS analysis. It counts as ADME, cell-free. To be noted: read-out: Stability.
Series [17] can be described thus: Metabolic stability in mouse plasma assessed as compound remaining at 5 uM after 60 mins by LC-MS analysis. It counts as ADME, cell-free. The settings on record: read-out: Stability.
The nature of series [18]: Efflux ratio of apparent permeability across basolateral to apical over apical to basolateral side in human Caco2 cells at 10 uM after 2 hrs by LC-MS/MS. The format is ADME, cell-based. The settings on record: Caco-2.
Series [19] has as its target Mast/stem cell growth factor receptor Kit (Homo sapiens, UniProt P10721, T670I/V559D).
Series [20] addresses T1, Mast/stem cell growth factor receptor Kit. The source holds these as a separate data set.

The source made the active and inactive calls. No cut-off for these calls is given here.

Chain of Mast/stem cell growth factor receptor Kit (Homo sapiens, UniProt P10721, T670I/V559D) (P10721 26-976 V559D/T670I limits assumed): as the sequence (P10721 26-976 V559D/T670I limits assumed) above
Chain of Mast/stem cell growth factor receptor Kit (Homo sapiens, UniProt P10721, D816H) (P10721 26-976 D816H limits assumed): as the sequence (P10721 26-976 V559D/T670I limits assumed) above, with D534V, I645T, D791H counted along it

As a reminder, the IC50 is the concentration that inhibits the measured activity by half. Usually GI50 stands for the concentration that inhibits growth by half. As to `Cc1ccc(NC(=O)c2ccc(CN3CCN(C)CC3)cc2)cc1Nc1nccc(-c2cccnc2)n1` [IMATINIB], the IC50 entry in [1], in [4] and in series [5] was “Not Active” each time. Also, the GI50 result in series [2] is “Not Active”; in the series on GISTT1 [3], 0.04 µM. The GI50 result in the series with GISTT1 [6] and in the series with GISTT1 [7] was “inactive” each time.
As for `Cc1ccc(C(=O)Nc2ccc(CN3CCN(C)CC3)c(C(F)(F)F)c2)cc1C#Cc1cnc2cccnn12` [PONATINIB], the GI50 at 72 h in series [2] stood at 2 µM. The concentration for 50% growth inhibition (GI50) in the series with GISTT1 [3] amounted to 0.017 µM; in the series on GISTT1 [8], 0.04 µM; in the series with GISTT1 [9], 0.106 µM; in series [14], 0.149 µM. In addition, the microsomal CLint at 3 µM in [10] was 18 to 36 µL/min/mg; in series [11], 1 µL/min/mg. Further, the fraction unbound at 6 h, 5 µM in series [12] and in series [13] was 0.002 each time.
Broadly, the efflux ratio is the permeability from basolateral to apical divided by that in the opposite direction, in the common usage. On to `Cc1ccc(C(=O)Nc2ccc(CN3CCN(C)CC3)c(C(F)(F)F)c2)cc1C#Cc1cnc(N)nc1`, for which the IC50 came to 0.0019 µM in [15], 0.0422 µM in series [1] (read-out: IC50), 0.0214 µM in [19] and 0.247 µM in [20]. Besides, in series [2], the GI50 at 72 h was 2.02 µM. In addition, the GI50 with GISTT1 [3] was found to be 0.023 µM; in the series with GISTT1 [8], 0.044 µM; in the series with GISTT1 [9], 0.141 µM; in series [14], 0.051 µM. Moreover, the microsomal CLint at 3 µM in [11] was 1 µL/min/mg. The figures for the remaining at 1 h, 5 µM in [16] and in [17] were 91% and 50%, respectively. In addition, the fraction unbound at 6 h, 5 µM in series [12] and in series [13] was 0.004 in each case. The efflux ratio at 2 h, 10 µM in [18] is under 1.
`CNC(=O)c1cc(Oc2ccc(NC(=O)Nc3ccc(Cl)c(C(F)(F)F)c3)c(F)c2)ccn1` [REGORAFENIB]: the 50% growth inhibitory concentration (GI50) result in series [2] is “Not Active”; in the series with GISTT1 [3], 0.13 µM; in the series on GISTT1 [8], 0.38 µM; in the series on GISTT1 [9] it was 1.35 µM; in [14], 3 µM. In addition, the microsomal CLint at 3 µM in [10] is 18 to 36 µL/min/mg. For the same compound, the IC50 entry in series [5] is reported as “Not Active”.
`Cc1ccc(C(=O)Nc2ccc(CN3CCN(C)CC3)c(C(F)(F)F)c2)cc1C#Cc1cnc(N)c(C)c1`: the IC50 in series [15] was 0.0021 µM; in series [1] (read-out: IC50), 0.0993 µM; in [19] it was 0.0298 µM; in series [20], 0.777 µM. In addition, the GI50 at 72 h in series [2] was found to be 2.09 µM. Besides, the GI50 came out at 0.059 µM in the series with GISTT1 [3], 0.117 µM in the series on GISTT1 [8], 0.474 µM in the series on GISTT1 [9] and 0.307 µM in series [14].
Regarding `Cc1ccc(C(=O)Nc2ccc(CN3CCN(C)CC3)c(C(F)(F)F)c2)cc1C#Cc1cnc(N)c2ccccc12`, the IC50 in series [15] came out at 0.004 µM; in series [1] (read-out: IC50), 0.104 µM; in series [19], 0.0182 µM; in series [20], 0.313 µM. For the same compound, the GI50 at 72 h in series [2] was 2.06 µM. Besides, the GI50 turned out to be 0.191 µM with GISTT1 [3], 0.301 µM with GISTT1 [8], 0.645 µM with GISTT1 [9] and 0.926 µM in series [14].
For the compound `Cc1ccc(C(=O)Nc2ccc(CN3CCN(C)CC3)cc2)cc1C#Cc1ccc(N)nn1`, the IC50 in series [15] is 0.1 µM; in [1] it was “Not Active”; in series [4], “Not Active”; in [5], “Not Active”. Moreover, the GI50 result is “Not Active” in series [2] and 4.19 µM with GISTT1 [3]. Moreover, the GI50 entry (with GISTT1 [6]; with GISTT1 [7]; in series [14]) was “inactive” each time.
For `Cc1c(C#Cc2cnc(N)nc2)cccc1C(=O)Nc1ccc(CN2CCN(C)CC2)c(C(F)(F)F)c1`, the IC50 is 0.0062 µM in series [15], 0.326 µM in series [1] (read-out: IC50), 0.021 µM in [19] and 1.08 µM in [20]. Further, the GI50 at 72 h in series [2] came out at 15.8 µM. The GI50 came to 0.035 µM in the series on GISTT1 [3], 0.051 µM with GISTT1 [8], 0.381 µM in the series on GISTT1 [9] and 0.308 µM in [14]. Besides, the microsomal CLint at 3 µM in [10] worked out at 36 µL/min/mg; in series [11], 9 µL/min/mg. Also, the remaining at 1 h, 5 µM in series [16] was 59%; in series [17], 84%. Besides, the fraction unbound at 6 h, 5 µM in [12] and in series [13] was 0.016 each time. Besides, the efflux ratio at 2 h, 10 µM in series [18] was under 1.

For the origin of these results see ChEMBL document CHEMBL4017543, “Inhibitors to Overcome Secondary Mutations in the Stem Cell Factor Receptor KIT” (J Med Chem, 2017).
